In general, EC50 refers to the midpoint of the concentration-response curve. By Ki is commonly meant the equilibrium dissociation constant of an inhibitor or competing ligand from its target. The IC50 is the concentration that gives 50% inhibition.

Data set [1] concerns the target T1, Metabotropic glutamate receptor 3 (Homo sapiens, UniProt Q14832). The experiment in a line: Agonist activity at mGLUR3 expressed in CHO cells. In kind it is functional, cell-based.
In data set [2] the target is T2, Metabotropic glutamate receptor 2 (Homo sapiens, UniProt Q14416). Put plainly: Agonist activity at mGLUR2 expressed in CHO cells. In kind it is functional, cell-based.
T2 sequence (Q14416 whole entry): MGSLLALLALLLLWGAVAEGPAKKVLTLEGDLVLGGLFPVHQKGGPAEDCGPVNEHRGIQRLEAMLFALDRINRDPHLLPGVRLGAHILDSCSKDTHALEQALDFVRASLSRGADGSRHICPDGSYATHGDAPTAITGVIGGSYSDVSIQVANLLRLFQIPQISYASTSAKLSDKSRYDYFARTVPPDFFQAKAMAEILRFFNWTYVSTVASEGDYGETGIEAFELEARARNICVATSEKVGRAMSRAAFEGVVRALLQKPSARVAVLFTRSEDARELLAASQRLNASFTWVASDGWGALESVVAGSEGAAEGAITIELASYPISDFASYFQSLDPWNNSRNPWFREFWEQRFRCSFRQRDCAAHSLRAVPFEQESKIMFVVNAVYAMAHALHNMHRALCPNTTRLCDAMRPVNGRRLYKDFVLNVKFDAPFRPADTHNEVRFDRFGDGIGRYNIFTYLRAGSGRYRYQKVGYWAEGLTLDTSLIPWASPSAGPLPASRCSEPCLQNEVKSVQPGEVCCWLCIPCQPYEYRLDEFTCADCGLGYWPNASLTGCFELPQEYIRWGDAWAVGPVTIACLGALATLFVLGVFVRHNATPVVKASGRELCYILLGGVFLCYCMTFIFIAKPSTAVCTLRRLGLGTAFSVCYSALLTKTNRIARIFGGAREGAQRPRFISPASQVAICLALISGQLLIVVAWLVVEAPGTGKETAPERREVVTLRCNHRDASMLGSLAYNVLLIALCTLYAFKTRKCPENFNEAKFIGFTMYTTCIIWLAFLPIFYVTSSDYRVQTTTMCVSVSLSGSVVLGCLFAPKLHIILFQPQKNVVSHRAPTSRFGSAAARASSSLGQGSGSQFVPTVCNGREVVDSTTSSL
In data set [3] the target is T1, Metabotropic glutamate receptor 3. Put plainly: Binding affinity to mGLUR3.
Data set [4] has as its target T2, Metabotropic glutamate receptor 2. Put plainly: Binding affinity to mGLUR2.
For data set [5], the target named is T1, Metabotropic glutamate receptor 3. Put plainly: Antagonist activity at mGLUR3 expressed in CHO cells assessed as inhibition of glutamate-induced inhibition of forskolin-stimulated cAMP production. The format is functional, cell-based. In general terms: cAMP levels reflect the balance of adenylyl cyclase and phosphodiesterase activity.
Data set [6] concerns the target T2, Metabotropic glutamate receptor 2. The experiment in a line: Antagonist activity at mGLUR2 expressed in CHO cells assessed as inhibition of glutamate-induced inhibition of forskolin-stimulated cAMP production.
Data set [7] concerns the target Metabotropic glutamate receptor 3 (Rattus norvegicus, UniProt P31422). Put plainly: Agonist activity at mGLUR3 in rat cerebral cortex assessed as inhibition of forskolin-stimulated cAMP production. The format is functional, tissue-based.
The subject of data set [8] is Brain. The experiment in a line: Drug uptake in Sprague-Dawley rat brain at […], iv from 20 to 40 mins by microPET analysis in presence of LY341495. The following applies: in vivo. The format is ADME, organism-based.
The subject of data set [9] is Cortex. The experiment in a line: Drug uptake in Sprague-Dawley rat cortex at […], iv from 1 to 40 mins by microPET analysis. The format is ADME, organism-based. Particulars: in vivo; call rule not given here.
In data set [10] the test system is Striatum. Put plainly: Drug uptake in Sprague-Dawley rat striatum at […], iv from 1 to 40 mins by microPET analysis. In kind it is ADME, organism-based. Particulars: in vivo.
The nature of data set [11]: Drug uptake in Sprague-Dawley rat olfactory lobe at […], iv from 20 to 40 mins by microPET analysis in presence of LY341495. In kind it is ADME, organism-based. The following applies: in vivo.
The subject of data set [12] is Striatum. The experiment in a line: Drug uptake in Sprague-Dawley rat striatum at 0.4 uCi, iv from 20 to 40 mins by microPET analysis in presence of LY341495. The format is ADME, organism-based. Particulars: in vivo.
Data set [13] is described as follows: Drug uptake in Sprague-Dawley rat cingulate cortex at […], iv from 20 to 40 mins by microPET analysis in presence of LY341495. The format is ADME, organism-based. Particulars: in vivo.
Data set [14] concerns Thalamus. The experiment in a line: Drug uptake in Sprague-Dawley rat thalamus at 0.4 uCi, iv from 20 to 40 mins by microPET analysis in presence of LY341495. The following applies: in vivo. In kind it is ADME, organism-based.
The nature of data set [15]: Drug uptake in Sprague-Dawley rat motor cortex at […], iv from 20 to 40 mins by microPET analysis in presence of LY341495. In kind it is ADME, organism-based. Particulars: in vivo.
Data set [16] deals with Hippocampus. Put plainly: Drug uptake in Sprague-Dawley rat hippocampus at […], iv from 1 to 40 mins by microPET analysis. The format is ADME, organism-based. The following applies: in vivo.
The test system of data set [17] is Cerebellum. The experiment in a line: Drug uptake in Sprague-Dawley rat cerebellum at […], iv from 20 to 40 mins by microPET analysis in presence of LY341495. In kind it is ADME, organism-based. The following applies: in vivo.
The subject of data set [18] is Brain. The experiment in a line: Drug uptake in Sprague-Dawley rat brain at […], iv from 1 to 40 mins by microPET analysis. Particulars: in vivo. In kind it is ADME, organism-based.
Data set [19] concerns Hippocampus. Put plainly: Drug uptake in Sprague-Dawley rat hippocampus at […], iv from 20 to 40 mins by microPET analysis in presence of LY341495. In kind it is ADME, organism-based. Particulars: in vivo.
Data set [20] deals with Brain. The experiment in a line: Drug uptake in Sprague-Dawley rat brain at […], iv at 2 mins by microPET analysis. In kind it is ADME, organism-based. The following applies: in vivo.
Data set [21] concerns Brain. Put plainly: Drug uptake in Sprague-Dawley rat brain at […], iv from 20 to 25 mins by microPET analysis. In kind it is ADME, organism-based. Particulars: in vivo.

T1 sequence (Q14832 whole entry): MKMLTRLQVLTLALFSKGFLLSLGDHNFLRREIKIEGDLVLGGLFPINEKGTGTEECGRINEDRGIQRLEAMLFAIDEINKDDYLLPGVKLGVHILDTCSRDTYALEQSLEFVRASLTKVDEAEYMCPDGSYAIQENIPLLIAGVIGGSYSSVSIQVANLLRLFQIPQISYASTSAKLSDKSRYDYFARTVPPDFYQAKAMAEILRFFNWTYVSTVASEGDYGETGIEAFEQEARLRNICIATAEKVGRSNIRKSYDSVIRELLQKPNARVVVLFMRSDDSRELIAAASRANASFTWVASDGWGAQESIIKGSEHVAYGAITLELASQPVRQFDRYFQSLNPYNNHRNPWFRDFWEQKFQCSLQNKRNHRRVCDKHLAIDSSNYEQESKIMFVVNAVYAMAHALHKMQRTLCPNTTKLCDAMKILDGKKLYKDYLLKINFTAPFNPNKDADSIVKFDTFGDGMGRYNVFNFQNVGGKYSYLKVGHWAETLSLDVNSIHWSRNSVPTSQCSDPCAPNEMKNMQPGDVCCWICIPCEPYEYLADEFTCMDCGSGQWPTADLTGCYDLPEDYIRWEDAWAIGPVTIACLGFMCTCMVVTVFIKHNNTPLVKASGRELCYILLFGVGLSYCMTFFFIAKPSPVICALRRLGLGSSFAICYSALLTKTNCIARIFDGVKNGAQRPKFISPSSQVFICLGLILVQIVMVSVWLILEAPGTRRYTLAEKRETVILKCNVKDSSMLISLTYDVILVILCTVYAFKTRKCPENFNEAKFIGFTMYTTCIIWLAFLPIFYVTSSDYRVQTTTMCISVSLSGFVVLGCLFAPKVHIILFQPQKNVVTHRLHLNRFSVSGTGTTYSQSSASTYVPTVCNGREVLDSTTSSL
Sequence of Metabotropic glutamate receptor 3 (Rattus norvegicus, UniProt P31422) (P31422 whole entry): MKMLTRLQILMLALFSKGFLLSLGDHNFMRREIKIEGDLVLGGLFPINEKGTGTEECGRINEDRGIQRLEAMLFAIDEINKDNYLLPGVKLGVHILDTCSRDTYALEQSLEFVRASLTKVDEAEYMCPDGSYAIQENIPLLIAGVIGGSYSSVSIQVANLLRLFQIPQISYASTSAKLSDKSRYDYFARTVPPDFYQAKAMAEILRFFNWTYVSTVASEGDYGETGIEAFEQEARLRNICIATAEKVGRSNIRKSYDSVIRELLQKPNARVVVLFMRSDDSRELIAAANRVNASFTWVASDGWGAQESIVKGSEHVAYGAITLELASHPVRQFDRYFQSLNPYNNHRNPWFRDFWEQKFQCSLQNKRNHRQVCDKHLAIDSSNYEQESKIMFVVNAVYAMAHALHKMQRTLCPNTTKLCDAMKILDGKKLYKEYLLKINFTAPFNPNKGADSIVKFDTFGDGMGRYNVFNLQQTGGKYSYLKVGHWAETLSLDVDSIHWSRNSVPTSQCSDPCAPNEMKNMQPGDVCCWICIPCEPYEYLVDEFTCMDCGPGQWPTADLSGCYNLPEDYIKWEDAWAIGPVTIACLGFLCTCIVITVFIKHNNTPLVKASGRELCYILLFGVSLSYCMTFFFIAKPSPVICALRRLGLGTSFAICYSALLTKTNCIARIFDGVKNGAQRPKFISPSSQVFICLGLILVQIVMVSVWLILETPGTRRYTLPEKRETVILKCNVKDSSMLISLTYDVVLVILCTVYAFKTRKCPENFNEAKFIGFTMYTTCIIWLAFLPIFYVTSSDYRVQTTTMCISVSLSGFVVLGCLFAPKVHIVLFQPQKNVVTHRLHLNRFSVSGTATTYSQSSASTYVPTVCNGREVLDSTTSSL

As for `N[C@@]1(C(=O)O)CC(=O)[C@@H]2[C@H]1[C@@]2(F)C(=O)O`, the EC50 in data set [1] came to 2.07 nM; in data set [2], 0.57 nM.
For the compound `N[C@]1(C(=O)O)[C@H]2[C@@H](C[C@H]1OCc1ccc(Cl)c(Cl)c1)[C@]2(F)C(=O)O`, the figures for the Ki in data set [3] and in data set [4] were 4.5 nM and 2.2 nM, respectively. Also, the IC50 in data set [5] was 24 nM; in data set [6], 20 nM.
As for `N[C@@]1(C(=O)O)CC[C@H]2[C@H](C(=O)O)[C@H]21`, in [7], the EC50 worked out at 38 nM.
As for `COC(=O)[C@H]1C[C@@H]1[C@@](N)(CCc1cccc(O[11CH3])c1)C(=O)OC`, the Drug uptake result in [8] is given as “Not Active”; in [9] it was “Active”; in [10], “Active”; in data set [11], “Active”; in data set [12], “Not Active”; in data set [13], “Not Active”. Besides, the Drug uptake entry in [14] was “Not Active”; in [15], “Not Active”; in data set [16], “Active”; in data set [17], “Not Active”; in data set [18] it was “Active”; in data set [19], “Not Active”. Further, the Drug uptake in [20] came out at 2.5 %ID/cm3.
On to `[11CH3]Oc1cccc(CC[C@@](N)(C(=O)O)[C@H]2C[C@@H]2C(=O)O)c1`, for which, in data set [21], the Drug uptake result is reported as “Not Active”.

Source of the values: ChEMBL document CHEMBL2176994, “Radiosynthesis of PET radiotracer as a prodrug for imaging group II metabotropic glutamate receptors in vivo” (Bioorg Med Chem Lett, 2012).
